Reference: US9745302B2 (TriOptoTec GmbH, priority 2011, dated 2017)
Counter-ions that a name gives are not always drawn.

Columns and labels:
[1] = test system: Staphylococcus aureus (ATCC number: 25923); experiment: Phototoxicity test (photodynamic inactivation, CFU count by Miles and Misra); type: cell-based; settings: irradiated at 50 mW/cm^2, 210 sec, 390-500 nm, CFU/ml counted after 24 h, median of 3
Method: (§1) A sample of the bacterial strain Staphylococcus aureus (ATCC number: 25923) or Escherichia coli (ATCC number: 25922) was taken from a cryogenically frozen culture, isolated on Müller-Hinton agar plates and cultivated under aerobic conditions at 37° C. in an overnight culture. Thereafter, 5 ml of Müller-Hinton liquid medium were inoculated with a smear of the bacterial culture (single colony) and incubated at 37° C. overnight. The bacterial suspension thus obtained was centrifuged at 2500 rpm for 10 min and the bacterial pellet obtained was resuspended in 5 ml of sterile PBS. The optical density of the bacterial suspension for the phototoxicity tests was OD600 nm=0.6, which corresponds to a bacteria count of ˜[…] bacteria per ml. The biochemical analysis and resistance determination of the bacteria were conducted with the VITEK2 system according to the M100-S14 guidelines from the NCCLS (2004).
(§2) 200 μl of a bacterial suspension (bacterial density: 10^8-10^12/ml) were incubated with 200 μl of each of various concentrations of the photosensitizers to be tested at room temperature for 10 min or 30 min. Thereafter, the bacteria were washed twice with distilled water and resuspended in 200 μl of distilled water, and the entire volume was transferred to a 96-well microtiter plate and then irradiated. The photosensitizers used were dissolved in distilled water and various dilution series were prepared (0 μM, 1 μM, 10 μM, 100 μM).
(§3) For sensitization, the Omnicure Series 2000 lamp (Photonics Solutions Inc., Edinburgh, UK) was used, which emits light from a range from 390 nm to 500 nm and has emission maxima Emax at 405 nm and 436 nm. The power applied in each case was 50 mW/cm^2.
(§4) Irradiated and unirradiated samples were used as controls. Likewise run were bacterial suspensions incubated only with photosensitizer (dark control).
(§5) The determination of the colony-forming units (CFU) per ml was conducted by the method published by Miles and Misra (Miles, A A; Misra, S S, Irwin, J O (1938 November). “The estimation of the bactericidal power of the blood.”. The Journal of hygiene 38 (6): 732-49). For this purpose, serial dilutions from 10^−2 to 10^−9 of the corresponding bacterial suspension were prepared. 3×20 μl of each of the corresponding bacterial dilutions were then dripped onto Müller-Hinton plates and incubated at 37° C. for 24 h. Thereafter, the number of surviving colony-forming units (CFU) was determined. Each of the experiments was repeated three times.
(§6) The effectiveness of phototoxicity with respect to bacteria after irradiation was defined according to the following guidelines for hand hygiene in the health sector (Boyce, J. M., and D. Pittet. 2002. Guideline for Hand Hygiene in Health-Care Settings: recommendations of the Healthcare Infection Control Practices Advisory Committee and the HICPAC/SHEA/APIC/IDSA Hand Hygiene Task Force. Infect Control Hosp Epidemiol 23: p. 3-40): • reduction in the CFU/ml by 1 log10 stage ? 90% effectiveness • reduction in the CFU/ml by 3 log10 stages ? 99.9% effectiveness • reduction in the CFU/ml by 5 log10 stages ? 99.999% effectiveness
(§7) For effective inactivation, the decrease of ≧3 log10 stages can therefore be adopted, and S. aureus and E. coli were chosen as examples of representatives from the group of the Gram-positive and Gram-negative bacteria (see Boyce J. M and D. Pittet 2009).

[2] = test system: Escherichia coli (ATCC number: 25922); experiment: as above; type: cell-based; settings: irradiated at 50 mW/cm^2, 210 sec, 390-500 nm, CFU/ml counted after 24 h, median of 3
Method: as §1, §2, §3, §4, §5, §6, §7

| SMILES | Required concentration [μM] to achieve a reduction by ≧3log10 stages (decrease by 99.9%), irradiation at 10.5 J/cm^2, S. aureus ([1]; incubation 10 min) | Required concentration [μM] to achieve a reduction by ≧3log10 stages (decrease by 99.9%), irradiation at 10.5 J/cm^2, E. coli ([2]; incubation 10 min) | Required concentration [μM] to achieve a reduction by ≧3log10 stages (decrease by 99.9%), irradiation at 10.5 J/cm^2, S. aureus ([1]; incubation 30 min) | Required concentration [μM] to achieve a reduction by ≧3log10 stages (decrease by 99.9%), irradiation at 10.5 J/cm^2, E. coli ([2]; incubation 30 min) |
| --- | --- | --- | --- | --- |
| Cc1cc2nc3c(=O)[nH]c(=O)nc-3n(CC(OC(=O)C(N)CCCCN)C(OC(=O)C(N)CCCCN)C(COC(=O)C(N)CCCCN)OC(=O)C(N)CCCCN)c2cc1C (centres unmarked) | 10 μM | 10 μM |  |  |
| Cc1cc2nc3c(=O)n(CCN)c(=O)nc-3n(CCN)c2cc1C [FL-02, 3,10-bis(2′-aminoeth-1′-yl)-7,8-dimethylbenzo[g]pteridine-2,4-dione hydrochloride] | 10 μM | 10 μM |  |  |
| CC(=O)OCC(OC(C)=O)C(OC(C)=O)C(Cn1c2nc(=O)n(CCC[n+]3ccc(-c4cc[n+](C)cc4)cc3)c(=O)c-2nc2cc(C)c(C)cc21)OC(C)=O.[I-].[I-] (centres unmarked) [FL-08, 1-{3-[7,8-dimethyl-2,4-dioxo-10-(2,3,4,5-tetraacetoxypentyl)-4,10-dihydro-2H-benzo[g]pteridin-3-yl]propyl}methyl-[4,4′]bipyridinyl-1-ium diiodide] | 1 μM | 1 μM |  |  |
| CCCCn1c2nc(=O)n(CCC[n+]3ccc(-c4cc[n+](C)cc4)cc3)c(=O)c-2nc2cc(C)c(C)cc21.[I-].[I-] [FL-08b, 1-{3-[7,8-dimethyl-2,4-dioxo-10-(butyl)-4,10-dihydro-2H-benzo[g]pteridin-3-yl]-propyl}methyl-[4,4′]bipyridinyl-1-ium diiodide] | 10 μM | 50 μM |  |  |
| CC[N+](CC)(CC)Cc1cc2c(cc1C)nc1c(=O)n(CCN)c(=O)nc-1n2CCN.Cl.Cl.[Br-] [FL-13, [3,10-bis(2-aminoethyl)-7-methyl-2,4-dioxo-2,3,4,10-tetrahydro-benzo[g]pteridin-8-ylmethyl]triethylammonium bromide dihydrochloride] |  |  | 10 μM | 10 μM |
| CCCCn1c2nc(=O)n(CC[N+](C)(C)C)c(=O)c-2nc2cc(C)c(C[N+](CC)(CC)CC)cc21.[Br-].[Br-] [FL-15, [10-butyl-3-(2-trimethylammoniumethyl)-7-methyl-2,4-dioxo-2,3,4, 10-tetrahydrobenzo[g]pteridin-8-ylmethyl]triethylammonium dibromide] |  |  | 10 μM | 10 μM |
| Cc1cc2nc3c(=O)n(CC[N+](C)(C)C)c(=O)nc-3n(CC[N+](C)(C)C)c2cc1C.[I-].[I-] [FL-17, 3,10-bis(2-trimethylammoniumethyl)-7,8-dimethyl-10H-benzo[g]pteridine-2,4-dione dibromide] |  |  | 100 μM | 100 μM |
| Cc1cc2nc3c(=O)n(CCN)c(=O)nc-3n(CC[N+](C)(C)CCN)c2cc1C.Cl.Cl.[Cl-] [FL-24, (2-aminoethyl)-{2-[3-(2-aminoethyl)-7,8-dimethyl-2,4-dioxo-3,4-dihydro-2H-benzo[g]pteridin-10-yl]ethyl}dimethylammonium chloride dihydrochloride] |  |  | 10 μM | >100^(*^) μM |
| Cc1cc2nc3c(=O)n(CC[N+](C)(C)C)c(=O)nc-3n(CC[N+](C)(C)CC[N+](C)(C)C)c2cc1C.[Br-].[Br-].[Br-] [FL-26, 3-(2-trimethylammoniumethyl)-10-{2-[(2-trimethylammoniumethyl)dimethyl-ammonium]ethyl}-7,8-dimethyl-10H-benzo[g]pteridine-2,4-dione tribromide] |  |  | 10 μM | >100^(*^) μM |
| Cc1cc2nc3c(=O)[nH]c(=O)nc-3n(CCNCCN)c2cc1C.Cl.Cl [FL-27, (2-aminoethyl)-[2-(7,8-dimethyl-2,4-dioxo-3,4-dihydro-2H-benzo[g]pteridin-10-yl)ethyl]amine dihydrochloride] |  |  | 10 μM | 100 μM |
